Experimental data taken from ChEMBL document CHEMBL1155874, “Carbonic anhydrase activators: Activation of the human cytosolic isozyme III and membrane-associated isoform IV with amino acids and amines” (Bioorg Med Chem Lett, 2008).

Key:
[1] = system: N[C@@H](Cc1c[nH]cn1)C(=O)O; test: (§1) Activity of human recombinant CA2 at 10 uM stopped-flow CO2 hydration method
[2] = system: N[C@H](Cc1c[nH]cn1)C(=O)O; test: as §1
[3] = target: Carbonic anhydrase 3 (Homo sapiens) (UniProt P07451); test: Activation of human recombinant CA3 at 10 uM by stopped-flow CO2 hydration method
Chain of Carbonic anhydrase 3 (Homo sapiens) (P07451 whole entry, the tested form may be a part): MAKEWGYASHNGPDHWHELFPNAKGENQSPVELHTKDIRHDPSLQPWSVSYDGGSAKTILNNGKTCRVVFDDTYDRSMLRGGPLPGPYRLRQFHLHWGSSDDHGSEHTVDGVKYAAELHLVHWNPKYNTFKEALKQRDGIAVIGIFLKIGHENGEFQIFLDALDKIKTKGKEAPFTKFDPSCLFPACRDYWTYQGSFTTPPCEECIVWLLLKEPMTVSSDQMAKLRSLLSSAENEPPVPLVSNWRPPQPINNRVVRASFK

[4] = target: Carbonic anhydrase 4 (Homo sapiens) (UniProt P22748); test: Activation of human recombinant truncated CA4 at 10 uM by stopped-flow CO2 hydration method
Chain of Carbonic anhydrase 4 (Homo sapiens) (P22748 whole entry, the tested form may be a part): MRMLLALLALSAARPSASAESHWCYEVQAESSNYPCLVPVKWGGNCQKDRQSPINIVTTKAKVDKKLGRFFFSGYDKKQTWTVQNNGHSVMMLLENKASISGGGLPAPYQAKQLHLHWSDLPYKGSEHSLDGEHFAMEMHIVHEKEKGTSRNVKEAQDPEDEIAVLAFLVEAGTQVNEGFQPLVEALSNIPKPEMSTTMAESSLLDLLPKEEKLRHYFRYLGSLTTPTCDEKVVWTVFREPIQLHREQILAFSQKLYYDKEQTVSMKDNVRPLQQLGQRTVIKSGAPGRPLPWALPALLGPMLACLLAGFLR

[5] = target: Carbonic anhydrase 1 (Homo sapiens) (UniProt P00915); test: Activation of human recombinant CA1 at 10 uM by stopped-flow CO2 hydration method
Chain of Carbonic anhydrase 1 (Homo sapiens) (P00915 2-261 limits assumed): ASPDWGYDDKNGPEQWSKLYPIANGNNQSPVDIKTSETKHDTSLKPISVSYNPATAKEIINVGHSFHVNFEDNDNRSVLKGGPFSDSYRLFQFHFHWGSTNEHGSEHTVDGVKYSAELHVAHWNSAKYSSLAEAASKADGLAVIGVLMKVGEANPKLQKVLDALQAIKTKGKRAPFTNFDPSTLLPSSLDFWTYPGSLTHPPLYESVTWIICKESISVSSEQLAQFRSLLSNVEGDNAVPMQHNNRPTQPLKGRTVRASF

[6] = target: Carbonic anhydrase 2 (Homo sapiens) (UniProt P00918); test: Activation of human recombinant CA2 at 10 uM by stopped-flow CO2 hydration method
[7] = system: N[C@@H](Cc1c[nH]cn1)C(=O)O; test: (§2) Activity of human recombinant CA1 at 10 uM by stopped-flow CO2 hydration method
[8] = system: N[C@H](Cc1c[nH]cn1)C(=O)O; test: as §2

Chain of Carbonic anhydrase 1 (Homo sapiens), P00915 (P00915 whole entry): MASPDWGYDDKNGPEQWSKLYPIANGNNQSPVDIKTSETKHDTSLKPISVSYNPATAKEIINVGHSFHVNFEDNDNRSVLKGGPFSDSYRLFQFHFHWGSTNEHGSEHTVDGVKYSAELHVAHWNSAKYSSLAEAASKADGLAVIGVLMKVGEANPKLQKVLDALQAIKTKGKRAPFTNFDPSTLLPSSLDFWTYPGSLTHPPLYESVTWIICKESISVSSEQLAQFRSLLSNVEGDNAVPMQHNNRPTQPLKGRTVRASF

Molecule	Ka [3] [µM]	Ka [4] [µM]	also measured
Carbonic anhydrase 2 (Homo sapiens) (from UniProt P00918)	–	–	kcat [1]: 4.3 ×10⁶ /s; kcat [2]: 2.7 ×10⁶ /s
NCCc1ccccn1	1.1	7.13	–
N[C@H](Cc1c[nH]c2ccccc12)C(=O)O	19	39.6	–
NCCc1ccc(O)c(O)c1	33.2	30.9	–
N[C@@H](Cc1ccc(O)c(O)c1)C(=O)O	13.5	15.3	–
NCCc1c[nH]c2ccc(O)cc12	0.78	3.14	–
NCCc1c[nH]cn1	36.9	25.3	Ka [5]: 2.1 µM
NCc1ccccn1	1.03	5.19	–
N[C@@H](Cc1ccc(O)cc1)C(=O)O	34.1	25.1	–
CNCC(O)c1ccc(O)c(O)c1 (single isomer, unassigned)	36.4	45	Ka [6]: 96 µM; Ka [5]: 0.09 µM
N[C@@H](Cc1c[nH]c2ccccc12)C(=O)O	20.5	37.1	–
N[C@@H](Cc1c[nH]cn1)C(=O)O	35.9	7.3	–
Carbonic anhydrase 1 (Homo sapiens), P00915	–	–	kcat [7]: 13.4 ×10⁵ /s; kcat [8]: 9.1 ×10⁵ /s
Nc1ccc(C[C@H](N)C(=O)O)cc1	43.2	0.079	–
NCCN1CCNCC1	0.32	24.9	–
N[C@H](Cc1ccc(O)c(O)c1)C(=O)O	28.7	34.7	–
N[C@H](Cc1c[nH]cn1)C(=O)O	1.12	12.3	–
NCCN1CCOCC1	0.091	1.3	–
